Test results taken from patent US10556098B2, “Microneedle array coated with drug composition” (TEIJIN LIMITED, priority 2012, dated 2020).

Legend:
[1] = set-up: species or system SD rat; details: rat, in vivo
Method: Additive: 0.5 w/w sodium carboxymethylcellulose ([…] % hydroxypropylcellulose 1000-5000 mPa·s […] Water: 97.75 w/w % The coater shown in FIG. 5 (the volume of a drug aqueous solution: 4 ml) was used. […] After coating said microneedle array with the solution, the microneedle array was dried at room temperature (20-25° C.) for 60 seconds. The hair of the nine-week old male SD rat's abdomen was removed with a hair clipper and a shaver. The microneedle array of FIG. 7 was pressed onto the rat's skin with a finger, and fixed with tape. After one hour, the microneedle array was removed. In order to evaluate the amount of residual desmopressin acetate (the amount remained on the skin surface and the amount attached to the microneedle array), desmopressin acetate was collected as follows. The skin surface was wiped with Kimwipes® impregnated with ethanol, and the amount of the drug collected from the skin was investigated by measuring the drug in the Kimwipes® with a HPLC. The collected microneedle array was immersed in 75% methanol, and the amount of the collected drug was measured with a HPLC.

in vivo = assay: in vivo; set-up: species or system SD rat; details: rat
Method: The hair of the nine-week old male SD rat's abdomen was removed with a hair clipper and a shaver. […] Also, the microneedle array after the administration was immersed in 75% methanol, and the amount of the collected drug was measured with a HPLC.

Needles after 1 hour adhesion C (residual drug on microneedle array) [1]: <0.025 µg
Skin after 1 hour adhesion D (residual drug on skin surface) [1]: <0.025 µg
AUC (in vivo; male, SD, 4.88 ug): 14.3 ng·h/mL
Skin absorption amount (in vivo): >4.83
Transfer into the blood (change in blood levels, FIG. 8) (in vivo): rapidly transferred in the blood
Amount remained on microneedle array (in vivo; 0.5 h): <0.025
Amount remained on skin surface (in vivo; 0.5 h): <0.025
SMILES: NC(=O)CC[C@@H]1NC(=O)[C@H](Cc2ccccc2)NC(=O)[C@H](Cc2ccc(O)cc2)NC(=O)CCSSC[C@@H](C(=O)N2CCC[C@H]2C(=O)N[C@H](CCCN=C(N)N)C(=O)NCC(N)=O)NC(=O)[C@H](CC(N)=O)NC1=O [desmopressin acetate]
